Target: T1, Human Polymorphonuclear Leukocyte Elastase (Homo sapiens, UniProt P08246)
T1 construct: Crude extract of human polymorphonuclear leukocytes (PMN) containing elastase activity; endogenous in cells; host or cells: human polymorphonuclear leukocytes (crude extract)
T1 sequence (P08246 30-247 limits assumed): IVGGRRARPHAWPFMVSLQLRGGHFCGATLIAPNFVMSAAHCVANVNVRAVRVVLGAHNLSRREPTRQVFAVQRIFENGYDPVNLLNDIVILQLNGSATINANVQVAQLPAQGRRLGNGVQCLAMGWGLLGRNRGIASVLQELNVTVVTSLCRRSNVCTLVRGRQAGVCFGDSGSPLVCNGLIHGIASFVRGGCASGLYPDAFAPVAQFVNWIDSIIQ
Assay: Inhibition of human polymorphonuclear leukocyte elastase via hydrolysis of N-t-Boc-alanyl-alanyl-prolylalanine-p-nitroanilide
Format: biochemical
Conditions: measured within 2 minutes, crude PMN extract; for inhibition at 5 µg/mL: Conc. of compound 5 μg/ml; for inhibition at 20 µg/mL: Conc. of compound 20 μg/ml; for inhibition at 50 µg/mL: Conc. of compound 50 μg/ml; for inhibition at 1 µg/mL: Conc. of compound 1 μg/ml; for inhibition at 2 µg/mL: Conc. of compound 2 μg/ml
Description: Protocol--Enzyme Assays for the Inhibition of Human Polymorphonuclear Leukocyte Elastase Via Hydrolysis of N-t-Boc-alanyl-alanyl-prolylalanine-p-nitroanilide
0.05M TES (N-tris[hydroxymethyl]methyl-2-amino-ethanesulfonic acid) Buffer, pH 7.5.
0.2 mM N-t-Boc-alanyl-alanyl-Prolyl-Alanine-p-nitroanilide (Boc-AAPAN).
To prepare substrate, the solid (m.w. 550) was first dissolved in 10.0 ml DMSO. Buffer at pH 7.5 was then added to a final volume of 100 ml.
Crude extract of human polymorphonuclear leukocytes (PMN) containing elastase activity.
Inhibitors (thienamycin esters) to be treated dissolved in DMSO just before use.
To 1.0 ml of 0.2 mM Boc-AAPAN in a cuvette, 0.01-0.1 ml of DMSO with or without inhibitor was added. After mixing, a measurement was taken at 410 mμ to detect any spontaneous hydrolysis due to presence of test compound. 0.05 Milliliters of PMN extract was then added and the ΔOD/min at 410 mμ was measured and recorded. Beckman model 35 spectrophotometer was used.
The elastase activity in the crude PMN extract may vary from one preparation to another. A control of each new batch is run, and the volume added in the assay procedure is adjusted according to activity.

Compound | inhibition at 5 µg/mL [%] | inhibition at 20 µg/mL [%] | inhibition at 50 µg/mL [%] | inhibition at 1 µg/mL [%] | inhibition at 2 µg/mL [%] | inhibition at 0.5 µg/mL (Conc. of compound .5 μg/ml) [%] | inhibition at 10 µg/mL (Conc. of compound 10 μg/ml) [%] | inhibition at 25 µg/mL (Conc. of compound 25 μg/ml) [%]
CCCC(=O)NCCSC1=C(C(=O)OCc2ccc([N+](=O)[O-])cc2)N2C(=O)[C@H]([C@@H](C)OC(C)=O)[C@H]2C1 [COCH2 C2 H5 / H / Ac / PNB] | 31 | 69 | 89 |  |  |  |  | 
CC(O)[C@H]1C(=O)N2C(C(=O)OCc3ccc([N+](=O)[O-])cc3)=C(SCCNC(=O)Cc3ccccc3)C[C@H]12 (stereo partly drawn) [COCH2 C6 H5 / H / H / PNB] | 84 | 95 | 100 | 47 |  |  |  | 
CC(O)[C@H]1C(=O)N2C(C(=O)OCc3ccc([N+](=O)[O-])cc3)=C(SCCN3C(=O)c4ccccc4C3=O)C[C@H]12 (stereo partly drawn) [phthaloyl / H / PNB] | 93 | 100 |  | 76 | 86 | 50 |  | 
CC(O)[C@H]1C(=O)N2C(C(=O)OCc3ccccc3)=C(SCCN3C(=O)c4ccccc4C3=O)C[C@H]12 (stereo partly drawn) [phthaloyl / H / benzyl] | 89 | 100 |  | 39 | 56 |  |  | 
CC(O[Si](C)(C)C)[C@H]1C(=O)N2C(C(=O)OCc3ccc([N+](=O)[O-])cc3)=C(SCCN3C(=O)c4ccccc4C3=O)C[C@H]12 (stereo partly drawn) [phthaloyl / TMS / PNB] |  |  | 96 | 38 | 83 |  | 95 | 95

— patent US4465687A, “Thienamycin derivatives as anti-inflammatory agents” (Merck & Co., Inc., priority 1982, dated 1984)
